According to patent publication US8637252B2, “Methods and compositions for determining altered susceptibility of HIV-1 to anti-HIV drugs” (Monogram Biosciences, Inc., priority 2011, dated 2014):
Several values for one entry are separate records, joined by “and”; a condition that tells them apart may be missing. Equal entries are not always repeated.

Legend:
[1] = tested on: HIV-1 (patient-derived POL segment); assay: phenotypic drug resistance test, resistance test vectors with patient-derived POL segment (entire pol gene), luciferase, 293 cells; assay type: cell-based
From the text: Patient-derived segment(s) corresponding to the entire pol gene, encoding HIV protease, reverse transcriptase (including RNAse H), and integrase (hereinafter “POL”), the portion of pol encoding amino acids 1-305 of reverse transcriptase (hereinafter “PR-RT”), the portion of pol encoding amino acids 319-440 of reverse transcriptase (including RNAse H), and integrase (hereinafter “RHIN”), were amplified by the reverse transcription-polymerase chain reaction method (RT-PCR) using viral RNA isolated from viral particles present in the plasma or serum of HIV-infected individuals as described below. The portion of pol encoding protease, amino acids 1-531 of reverse transcriptase (including RNase H) (hereinafter “PRRT-RH”), or the portion of pol encoding protease, reverse transcriptase (including RNAse H) and integrase (hereinafter “PRRT-RHIN”), were assembled from amplicons described above by standard recombinant DNA techniques involving a KpnI restriction site at amino acid 400 or a Pin A1 site at amino acid 315.
Virus was pelleted by centrifugation at 20,400×g for 60 min from plasma (typically, 1 ml) prepared from blood samples collected in evacuated tubes containing either EDTA, acid-citrate dextrose, or heparin as an anticoagulant. Virus particles were disrupted by resuspending the pellets in 200 [1.1 of lysis buffer (4 M guanidine thiocyanate, 0.1 M Tris HCl (pH 8.0), 0.5% sodium lauryl sarcosine, 1% dithiothreitol). RNA was extracted from viral lysates by using oligo(dT) linked to magnetic beads (Dynal, Oslo, Norway). Reverse transcription was performed with Superscript III (Invitrogen) at 50 degrees for 1 hour using primer 1.
From the resultant cDNA either POL or RHIN sequences were amplified using the Advantage High Fidelity PCR kit (BD Biosciences; Clontech). POL amplification products are made using forward Primer 3 containing an Apal site and reverse Primer 4 containing a Xho 1 site. RHIN amplification products are made using forward Primer 2 containing a P1NA1 site and reverse Primer 4 containing a Xho 1 site.
A retroviral vector designed to measure antiretroviral drug susceptibility was constructed by using an infectious molecular clone of HIV-1. The vector, referred to herein as an indicator gene viral vector (IGVV), is replication defective and contains a luciferase expression cassette inserted within a deleted region of the envelope (env) gene. The IGVV is described in U.S. Pat. No. 5,837,464 (International Publication Number WO 97/27319) which is hereby incorporated by reference in its entirety. This retroviral vector was further modified to allow insertion of either the entire pol gene (POL) or the portion of poi encoding amino acids 319-440 of reverse transcriptase, the RNase H portion of reverse transcriptase, and integrase (REIN) by engineering an Xho l restriction enzyme recognition site into vif. Prior to doing this, an Xho 1 site in nef was deleted. Resistance Test vectors (RTVs) were constructed by incorporating amplified POL or RHIN into the IGVV by using Apal and Xhol or PinAI and Xho 1 restriction sites respectively. RTVs were prepared as libraries (pools) in order to capture and preserve the pol or RHIN sequence heterogeneity of the virus in the patient. POL amplification products were digested with Apal and Xhol, purified by agarose gel electrophoresis, and ligated to ApaI- and Xhol-digested IGVV DNA. RHIN amplification products were digested with PinAI and Xho/, purified by agarose gel electrophoresis, and ligated to PinAI and Xhol-digested IGVV DNA. Ligation reactions were used to transform competent Escherichia coli (Invitrogen, Carlsbad, Calif.). An aliquot of each transformation was plated onto agar, and colony counts were used to estimate the number of patient-derived segments represented in each RTV library. RTV libraries that comprised less than 50 members are not considered representative of the patient virus. […]

[2] = tested on: HIV-1 patient-derived test vectors with site-directed reverse transcriptase mutations; assay: phenotypic drug resistance test, site-directed reverse transcriptase mutants in patient backgrounds; assay type: cell-based
Experimental: In addition, using conventional technique, the T369I mutation was introduced into a resistance test vector comprising PR-RT segment derived from patient sample 62, which comprises mutations A62V, Q102K, K103N, K122E, D123N, C162S, D177E, 1178L, M184V, T200A, Q207E, T215Y, P243S, V245Q, A272P and R277K in reverse transcriptase. Among these mutations, K103N correlates with resistance to a number of NNRTIs, including NVP. This patient sample was tested for resistance to an NNRTI using the methods described above.
(§1) To further analyze the effects of N348I, T369I, and E399D on NNRTI resistance, an additional series of site directed mutants was constructed in non-wild-type backgrounds. In particular, site-directed mutants comprising the N348I, T369I, or E399D mutation were constructed in POL-containing test vectors obtained from three different patient samples. Results from these experiments are presented as FIG. 11.
as §1, with “on AZT” for “on NNRTI”, “the N3481,” for “the N348I,”, “from two” for “from three”, “samples.” for “samples. Results from these experiments are presented as FIG. 11.”

[3] = Sample 47 (K103K/N, V106V/A, Y181Y/C, G190G/A)
[4] = Sample 58 (K103N, Y181Y/C, G190G/A)
[5] = Sample 62 (K103H, P225P/H, T369T/I)
[6] = Sample 90 (K103K/N, Y181C, G190A)
[7] = E399D mutation, patient 50 background
[8] = E399D mutation, patient 58 or patient 62 background
[9] = N348I and T369I mutations, POL test vectors of patients 50, 58, 62

## CC(C)Nc1cccnc1N1CCN(C(=O)c2cc3cc(NS(C)(=O)=O)ccc3[nH]2)CC1 [DLV, delavirdine]
[1]; Sample 31 (K103N)
  fold change in IC50, pol: 28.0 fold
  pol/PR-RT ratio: 1.7
[1]; Sample 33 (K103S)
  fold change in IC50, pol: 5.7 fold
  pol/PR-RT ratio: 0.7
[1]; Sample 34
  fold change in IC50, pol: 0.4 fold
  pol/PR-RT ratio: 1.0
[1]; Sample 35 (K103H)
  fold change in IC50, pol: 5.4 fold
  pol/PR-RT ratio: 0.8
[1]; Sample 36 (K103K/W)
  fold change in IC50, pol: 1.9 fold
  pol/PR-RT ratio: 0.2
[1]; Sample 38 (K103N)
  fold change in IC50, pol: 66.0 fold
  pol/PR-RT ratio: 0.5
[1]; Sample 39 (T369A)
  fold change in IC50, pol: 1.2 fold
  pol/PR-RT ratio: 5.1
[1]; Sample 42 (G190G/A)
  fold change in IC50, pol: 0.2 fold
  pol/PR-RT ratio: 0.5
[1]; Sample 45
  fold change in IC50, pol: 0.1 fold
  pol/PR-RT ratio: 0.7
[1]; [3]
  fold change in IC50, pol: 5.4 fold
  pol/PR-RT ratio: 0.9
[1]; Sample 50 (K103N)
  fold change in IC50, pol: 65.4 fold
  pol/PR-RT ratio: 0.3
[1]; Sample 51
  fold change in IC50, pol: 0.3 fold
  pol/PR-RT ratio: 0.9
[1]; Sample 52
  fold change in IC50, pol: 2.7 fold
  pol/PR-RT ratio: 0.8
[1]; [4]
  fold change in IC50, pol: 250.0 fold
  pol/PR-RT ratio: 1.7
[1]; [5]
  fold change in IC50, pol: 140.0 fold and 140.00 fold
  pol/PR-RT ratio: 8.8
[1]; Sample 64 (T369T/A)
  fold change in IC50, pol: 0.3 fold
  pol/PR-RT ratio: 0.2
[1]; Sample 69
  fold change in IC50, pol: 1.8 fold
  pol/PR-RT ratio: 1.2
[1]; Sample 72
  fold change in IC50, pol: 1.2 fold
  pol/PR-RT ratio: 1.4
[1]; Sample 80 (K103K/N, Y181Y/C)
  fold change in IC50, pol: 22.0 fold
  pol/PR-RT ratio: 0.3
[1]; Sample 81 (K103N, P225H)
  fold change in IC50, pol: 9.5 fold
  pol/PR-RT ratio: 0.8
[1]; Sample 84
  fold change in IC50, pol: 0.5 fold
  pol/PR-RT ratio: 0.6
[1]; Sample 85
  fold change in IC50, pol: 69.0 fold
  pol/PR-RT ratio: 2.7
[1]; Sample 87
  fold change in IC50, pol: 0.7 fold
  pol/PR-RT ratio: 0.9
[1]; Sample 89 (L1001, K103N)
  fold change in IC50, pol: 250.0 fold
  pol/PR-RT ratio: 1.0
[1]; [6]
  fold change in IC50, pol: 4.8 fold
  pol/PR-RT ratio: 1.1
[1]; Sample 92
  fold change in IC50, pol: 0.8 fold
  pol/PR-RT ratio: 0.8
[1]; Sample 93
  fold change in IC50, pol: 0.2 fold
  pol/PR-RT ratio: 0.6
[2]; [7]
  change in resistance on addition of mutation: increased
[2]; [8]
  change in resistance on addition of mutation: not
[2]; [9]
  change in resistance on addition of mutation: increased resistance

## O=C1Nc2ccc(Cl)cc2[C@@](C#CC2CC2)(C(F)(F)F)O1 [EFV, efavirenz]
[1]; Sample 31 (K103N)
  fold change in IC50, pol: 56.0 fold
  pol/PR-RT ratio: 2.5
[1]; Sample 33 (K103S)
  fold change in IC50, pol: 5.9 fold
  pol/PR-RT ratio: 0.8
[1]; Sample 34
  fold change in IC50, pol: 0.6 fold
  pol/PR-RT ratio: 1.4
[1]; Sample 35 (K103H)
  fold change in IC50, pol: 9.5 fold
  pol/PR-RT ratio: 1.0
[1]; Sample 36 (K103K/W)
  fold change in IC50, pol: 2.2 fold
  pol/PR-RT ratio: 0.3
[1]; Sample 38 (K103N)
  fold change in IC50, pol: 27.0 fold
  pol/PR-RT ratio: 0.6
[1]; Sample 39 (T369A)
  fold change in IC50, pol: 1.0 fold
  pol/PR-RT ratio: 4.0
[1]; Sample 42 (G190G/A)
  fold change in IC50, pol: 1.1 fold
  pol/PR-RT ratio: 0.3
[1]; Sample 45
  fold change in IC50, pol: 0.2 fold
  pol/PR-RT ratio: 1.0
[1]; [3]
  fold change in IC50, pol: 30.2 fold
  pol/PR-RT ratio: 0.2
[1]; Sample 50 (K103N)
  fold change in IC50, pol: 24.1 fold
  pol/PR-RT ratio: 0.4
[1]; Sample 51
  fold change in IC50, pol: 0.5 fold
  pol/PR-RT ratio: 1.1
[1]; Sample 52
  fold change in IC50, pol: 1.1 fold
  pol/PR-RT ratio: 0.8
[1]; [4]
  fold change in IC50, pol: 153.9 fold
  pol/PR-RT ratio: 5.8
[1]; [5]
  fold change in IC50, pol: 202 fold and 202.0 fold and 202.00 fold
  pol/PR-RT ratio: 10.1
[1]; Sample 64 (T369T/A)
  fold change in IC50, pol: 0.3 fold
  pol/PR-RT ratio: 0.3
[1]; Sample 69
  fold change in IC50, pol: 1.2 fold
  pol/PR-RT ratio: 1.6
[1]; Sample 72
  fold change in IC50, pol: 0.8 fold
  pol/PR-RT ratio: 1.5
[1]; Sample 80 (K103K/N, Y181Y/C)
  fold change in IC50, pol: 6.3 fold
  pol/PR-RT ratio: 0.6
[1]; Sample 81 (K103N, P225H)
  fold change in IC50, pol: 136.0 fold
  pol/PR-RT ratio: 1.4
[1]; Sample 84
  fold change in IC50, pol: 0.7 fold
  pol/PR-RT ratio: 1.0
[1]; Sample 85
  fold change in IC50, pol: 77.0 fold
  pol/PR-RT ratio: 3.5
[1]; Sample 87
  fold change in IC50, pol: 1.0 fold
  pol/PR-RT ratio: 1.1
[1]; Sample 89 (L1001, K103N)
  fold change in IC50, pol: 700.0 fold
  pol/PR-RT ratio: 1.0
[1]; [6]
  fold change in IC50, pol: 66.0 fold
  pol/PR-RT ratio: 1.3
[1]; Sample 92
  fold change in IC50, pol: 0.8 fold
  pol/PR-RT ratio: 0.8
[1]; Sample 93
  fold change in IC50, pol: 0.7 fold
  pol/PR-RT ratio: 0.8
[2]; [7]
  change in resistance on addition of mutation: increased
[2]; [8]
  change in resistance on addition of mutation: not
[2]; [9]
  change in resistance on addition of mutation: increased resistance
